Laboratory results: ChEMBL document CHEMBL1201862, “PubChem BioAssay data set” (2004)
Active and inactive are the calls of the source.

Key:
[1] = molecular target: Dual specificity tyrosine-phosphorylation-regulated kinase 1A (Rattus norvegicus, UniProt Q63470); type: biochemical, Homo sapiens
[2] = molecular target: Dual specificity protein kinase CLK1 (Homo sapiens, UniProt P49759); assay: CLK1 kinase inhibitors, off-target check, dose response, selectivity assay for Dyrk1A inhibitor project, biochemical, cherry-picked samples (AID 588811)
Chain of Dual specificity protein kinase CLK1 (P49759 whole entry): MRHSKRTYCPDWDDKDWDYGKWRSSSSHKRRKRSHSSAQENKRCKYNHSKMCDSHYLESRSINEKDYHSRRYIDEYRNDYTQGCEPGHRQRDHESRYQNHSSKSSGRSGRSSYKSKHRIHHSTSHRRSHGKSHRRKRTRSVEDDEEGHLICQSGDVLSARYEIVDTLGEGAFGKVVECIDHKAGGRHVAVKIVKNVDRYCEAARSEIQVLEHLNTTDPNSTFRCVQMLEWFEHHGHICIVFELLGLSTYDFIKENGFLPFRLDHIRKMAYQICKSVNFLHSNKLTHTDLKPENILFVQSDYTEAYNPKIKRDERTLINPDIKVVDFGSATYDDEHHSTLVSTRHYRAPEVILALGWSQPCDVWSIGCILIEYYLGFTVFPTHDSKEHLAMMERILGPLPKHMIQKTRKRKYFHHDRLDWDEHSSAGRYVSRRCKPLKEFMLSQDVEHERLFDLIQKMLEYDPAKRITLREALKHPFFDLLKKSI

Beta Lactamase = Beta Lactamase (Pseudomonas aeruginosa, UniProt Q932Y6); assay: beta-lactamase reporter inhibitor potency, dose response, artefact control for TLR9-MyD88 binding inhibitor project, BLA reporter cells, FRET fluorescence (AID 588341); type: cell-based;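 further: cell based assay in CHO-K1 cells stably expressing beta-lactamase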
Chain of Beta Lactamase (Q932Y6 whole entry, the tested form may be a part): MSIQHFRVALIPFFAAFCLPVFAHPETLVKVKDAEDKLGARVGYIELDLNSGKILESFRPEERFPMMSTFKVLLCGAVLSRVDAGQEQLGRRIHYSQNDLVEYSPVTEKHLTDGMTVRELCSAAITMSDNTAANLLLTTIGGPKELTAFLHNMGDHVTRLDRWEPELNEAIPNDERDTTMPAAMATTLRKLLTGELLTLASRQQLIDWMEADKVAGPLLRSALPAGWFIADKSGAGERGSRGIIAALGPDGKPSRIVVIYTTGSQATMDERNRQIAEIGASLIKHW

CHO = assay: cytotoxicity in TLR9-MyD88 CHO cells, dose response, cytotoxicity control for TLR9-MyD88 binding inhibitor project, cell-based, luminescence (AID 588339); type: functional, hamster; details: Cricetulus griseus;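 further: CHO cells stably coexpressing TLR9 and MyD88 fusions from primary screen; compound exposure lasted 48 hours before viability readout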
[3] = NIH-3T3 fibroblast cytotoxicity, dose response, cytotoxicity control, cell-based, fluorescence, Alamar Blue, secondary assay (AID 2327); type: functional;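 further: NIH-3T3 mouse fibroblasts cultured with fluconazole at 8 µg/mL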
[4] = molecular target: ATP-dependent molecular chaperone HSP82 (Candida albicans (strain WO-1) (Yeast), UniProt C4YTQ8); assay: loss of DOC-induced GRE-beta-galactosidase reporter signal, dose response, Hsp90 inhibitor project, S. cerevisiae, luminescence (AID 2400); type: functional, cell-based;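 further: beta-galactosidase luminescence from glucocorticoid response element reporter as proxy for Hsp90 function; inhibitor potency where signal loss means Hsp90 inhibition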
Chain of ATP-dependent molecular chaperone HSP82 (C4YTQ8 whole entry): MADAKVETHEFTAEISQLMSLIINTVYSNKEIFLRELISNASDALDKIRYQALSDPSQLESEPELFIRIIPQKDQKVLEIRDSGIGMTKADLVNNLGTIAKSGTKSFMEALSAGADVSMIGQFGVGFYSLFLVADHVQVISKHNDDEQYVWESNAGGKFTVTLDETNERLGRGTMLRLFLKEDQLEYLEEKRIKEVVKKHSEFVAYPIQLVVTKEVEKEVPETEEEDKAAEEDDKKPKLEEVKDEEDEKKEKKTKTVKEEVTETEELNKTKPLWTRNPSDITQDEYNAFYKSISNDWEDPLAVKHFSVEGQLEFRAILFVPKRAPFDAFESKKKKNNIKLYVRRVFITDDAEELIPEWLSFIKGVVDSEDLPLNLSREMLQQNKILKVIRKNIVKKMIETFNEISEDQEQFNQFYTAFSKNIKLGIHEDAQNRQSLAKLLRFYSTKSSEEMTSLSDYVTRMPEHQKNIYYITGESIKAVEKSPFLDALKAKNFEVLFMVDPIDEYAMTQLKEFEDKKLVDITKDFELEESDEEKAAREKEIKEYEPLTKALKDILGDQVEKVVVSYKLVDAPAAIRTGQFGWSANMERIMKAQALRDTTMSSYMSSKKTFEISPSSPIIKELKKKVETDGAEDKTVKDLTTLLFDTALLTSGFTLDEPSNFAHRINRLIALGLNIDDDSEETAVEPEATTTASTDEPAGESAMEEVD

[5] = molecular target: Serine/threonine-protein phosphatase (Candida dubliniensis (strain CD36 / CBS 7987 / NCPF 3949 / NRRLY-17841) (Yeast), UniProt B9W6M3); assay: calcineurin pathway inhibitors in yeast reporter, dose response, S. cerevisiae, CDRE-lacZ, luminescence, secondary (AID 2388); type: functional, cell-based;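 further: yeast reporter cells carrying a calcineurin-responsive lacZ construct stimulated with calcium chloride; luminescent beta-galactosidase reporter signal in whole cells rather than isolated phosphatase activity; potency for inhibition where a drop in reporter signal means calcineurin blockade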
Chain of Serine/threonine-protein phosphatase (B9W6M3 whole entry): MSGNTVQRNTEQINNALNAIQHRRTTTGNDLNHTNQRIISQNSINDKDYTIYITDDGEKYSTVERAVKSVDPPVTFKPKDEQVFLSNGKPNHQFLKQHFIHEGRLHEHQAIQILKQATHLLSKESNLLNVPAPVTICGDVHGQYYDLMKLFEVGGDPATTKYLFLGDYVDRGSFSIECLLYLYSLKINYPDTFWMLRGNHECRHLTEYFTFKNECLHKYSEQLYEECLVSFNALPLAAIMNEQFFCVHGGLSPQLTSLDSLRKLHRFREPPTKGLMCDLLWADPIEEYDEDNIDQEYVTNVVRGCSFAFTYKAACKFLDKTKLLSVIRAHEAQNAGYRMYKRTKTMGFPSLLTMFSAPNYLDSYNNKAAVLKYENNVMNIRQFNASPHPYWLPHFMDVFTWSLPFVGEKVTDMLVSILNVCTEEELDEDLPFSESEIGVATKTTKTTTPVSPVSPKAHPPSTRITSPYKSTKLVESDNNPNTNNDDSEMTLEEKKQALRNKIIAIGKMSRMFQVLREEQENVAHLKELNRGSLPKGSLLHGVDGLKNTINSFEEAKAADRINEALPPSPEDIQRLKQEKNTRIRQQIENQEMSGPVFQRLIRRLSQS

[6] = C. albicans growth with fluconazole, confirmation, fluorescence, retest (AID 2467); type: functional, cell-based
[7] = molecular target: T1, Endoribonuclease toxin MazF (Escherichia coli K-12, UniProt P0AE70); assay: MazF toxin RNase activators, dose response, biochemical, fluorescence, single-stranded RNA substrate, uHTS hits (AID 588481); type: functional
T1 sequence (P0AE70 whole entry): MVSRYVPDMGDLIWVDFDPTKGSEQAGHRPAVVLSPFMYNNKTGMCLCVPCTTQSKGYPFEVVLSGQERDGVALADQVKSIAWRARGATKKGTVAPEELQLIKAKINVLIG

[8] = molecular target: T2, Sentrin-specific protease 1 (Homo sapiens, UniProt Q9P0U3); assay: potency of human SENP1 inhibitors, dose response, biochemical, kinetic FRET (AID 651697); type: functional; details: read-out: IC50_Mean
T2 sequence (Q9P0U3 whole entry): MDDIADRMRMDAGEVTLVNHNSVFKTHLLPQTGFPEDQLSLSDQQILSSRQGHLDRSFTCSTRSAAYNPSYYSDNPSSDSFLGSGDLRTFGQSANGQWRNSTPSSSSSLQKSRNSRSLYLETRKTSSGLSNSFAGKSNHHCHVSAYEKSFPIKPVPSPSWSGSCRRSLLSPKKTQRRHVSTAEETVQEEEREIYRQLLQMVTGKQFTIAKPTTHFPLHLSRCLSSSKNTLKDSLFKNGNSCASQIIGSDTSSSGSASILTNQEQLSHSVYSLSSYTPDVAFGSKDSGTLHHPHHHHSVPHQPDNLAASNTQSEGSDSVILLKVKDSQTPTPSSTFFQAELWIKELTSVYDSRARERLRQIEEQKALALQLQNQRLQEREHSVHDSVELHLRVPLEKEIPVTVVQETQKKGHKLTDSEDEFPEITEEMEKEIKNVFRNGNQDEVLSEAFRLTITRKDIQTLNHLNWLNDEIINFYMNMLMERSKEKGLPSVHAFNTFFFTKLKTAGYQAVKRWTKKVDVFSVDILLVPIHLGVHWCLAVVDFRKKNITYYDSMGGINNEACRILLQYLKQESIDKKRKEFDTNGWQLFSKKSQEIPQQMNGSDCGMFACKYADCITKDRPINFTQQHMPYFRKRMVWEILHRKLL

[9] = molecular target: T2, Sentrin-specific protease 1; assay: Dose response confirmation of small molecule inhibitors of the catalytic domain of the SUMO protease, SENP1 in a FRET assay.; type: functional; details: read-out: IC50_Mean
[10] = molecular target: T1, Endoribonuclease toxin MazF; assay: fluorescent RNA oligo signal without MazF, dose response, counter-screen for MazEF activator project, biochemical, fluorescence, single-stranded RNase substrate (AID 588502); type: functional
Hexokinase-1 = molecular target: T3, Hexokinase-1 (Homo sapiens, UniProt P19367); assay: SAR analysis of small molecule inhibitors of hexokinase domain containing I (HKDC1) in the hexokinase 1 selectivity assay. [Related pubchem assays (depositor defined):AID493160, AID493190]; type: functional
T3 sequence (P19367 whole entry): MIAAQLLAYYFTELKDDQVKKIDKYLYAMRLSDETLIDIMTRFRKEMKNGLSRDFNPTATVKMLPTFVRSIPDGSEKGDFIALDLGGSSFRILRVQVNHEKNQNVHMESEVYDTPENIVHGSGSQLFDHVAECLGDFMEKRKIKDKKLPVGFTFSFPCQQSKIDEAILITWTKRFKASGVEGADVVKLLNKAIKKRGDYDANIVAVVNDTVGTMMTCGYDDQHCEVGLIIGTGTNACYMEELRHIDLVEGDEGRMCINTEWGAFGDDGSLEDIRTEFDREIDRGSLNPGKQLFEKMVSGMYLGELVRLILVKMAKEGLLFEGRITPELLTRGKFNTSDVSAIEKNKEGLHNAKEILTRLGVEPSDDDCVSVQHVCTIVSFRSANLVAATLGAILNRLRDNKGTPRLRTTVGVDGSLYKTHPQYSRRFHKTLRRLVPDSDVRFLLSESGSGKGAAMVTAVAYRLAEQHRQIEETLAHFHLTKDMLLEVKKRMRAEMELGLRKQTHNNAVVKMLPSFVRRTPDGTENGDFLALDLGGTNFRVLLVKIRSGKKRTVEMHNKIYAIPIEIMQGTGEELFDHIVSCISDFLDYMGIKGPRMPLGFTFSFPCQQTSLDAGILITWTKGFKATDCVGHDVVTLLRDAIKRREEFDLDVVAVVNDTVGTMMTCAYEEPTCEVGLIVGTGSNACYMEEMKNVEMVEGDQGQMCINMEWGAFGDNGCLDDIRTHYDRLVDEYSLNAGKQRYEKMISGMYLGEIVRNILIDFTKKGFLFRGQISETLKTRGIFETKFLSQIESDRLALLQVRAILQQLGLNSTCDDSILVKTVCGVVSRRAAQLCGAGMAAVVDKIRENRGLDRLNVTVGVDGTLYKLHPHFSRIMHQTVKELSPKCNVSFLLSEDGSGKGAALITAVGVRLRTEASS

Hexokinase HKDC1 = molecular target: T4, Hexokinase HKDC1 (Homo sapiens, UniProt Q2TB90); assay: SAR analysis of small molecule inhibitors of hexokinase domain containing I (HKDC1). [Related pubchem assays (depositor defined):AID493160, AID493190]; type: functional
T4 sequence (Q2TB90 whole entry): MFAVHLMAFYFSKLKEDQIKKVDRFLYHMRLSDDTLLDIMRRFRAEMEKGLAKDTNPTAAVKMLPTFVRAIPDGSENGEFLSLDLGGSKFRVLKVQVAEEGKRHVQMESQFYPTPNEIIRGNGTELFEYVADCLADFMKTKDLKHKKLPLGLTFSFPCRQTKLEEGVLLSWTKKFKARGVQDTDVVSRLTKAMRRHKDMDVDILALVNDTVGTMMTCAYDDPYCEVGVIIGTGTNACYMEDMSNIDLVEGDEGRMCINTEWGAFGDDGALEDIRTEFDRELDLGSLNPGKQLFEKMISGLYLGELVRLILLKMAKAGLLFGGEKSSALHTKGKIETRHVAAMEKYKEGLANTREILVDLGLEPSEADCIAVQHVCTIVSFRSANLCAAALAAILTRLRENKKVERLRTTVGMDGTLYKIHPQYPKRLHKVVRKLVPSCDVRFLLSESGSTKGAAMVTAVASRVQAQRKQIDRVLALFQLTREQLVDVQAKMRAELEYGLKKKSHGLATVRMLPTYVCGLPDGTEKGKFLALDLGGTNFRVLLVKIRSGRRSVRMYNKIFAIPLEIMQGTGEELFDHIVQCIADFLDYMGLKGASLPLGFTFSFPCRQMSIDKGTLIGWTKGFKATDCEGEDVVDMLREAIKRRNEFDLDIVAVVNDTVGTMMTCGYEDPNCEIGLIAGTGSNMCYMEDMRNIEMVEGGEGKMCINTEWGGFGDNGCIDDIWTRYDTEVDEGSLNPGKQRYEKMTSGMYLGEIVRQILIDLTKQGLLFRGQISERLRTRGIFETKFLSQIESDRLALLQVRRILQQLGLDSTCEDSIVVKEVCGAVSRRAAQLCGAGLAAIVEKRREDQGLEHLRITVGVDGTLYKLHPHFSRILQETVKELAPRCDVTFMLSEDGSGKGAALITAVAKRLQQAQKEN

[11] = molecular target: T5, Kappa-type opioid receptor (Homo sapiens, UniProt P41145); type: functional
T5 sequence (P41145 whole entry): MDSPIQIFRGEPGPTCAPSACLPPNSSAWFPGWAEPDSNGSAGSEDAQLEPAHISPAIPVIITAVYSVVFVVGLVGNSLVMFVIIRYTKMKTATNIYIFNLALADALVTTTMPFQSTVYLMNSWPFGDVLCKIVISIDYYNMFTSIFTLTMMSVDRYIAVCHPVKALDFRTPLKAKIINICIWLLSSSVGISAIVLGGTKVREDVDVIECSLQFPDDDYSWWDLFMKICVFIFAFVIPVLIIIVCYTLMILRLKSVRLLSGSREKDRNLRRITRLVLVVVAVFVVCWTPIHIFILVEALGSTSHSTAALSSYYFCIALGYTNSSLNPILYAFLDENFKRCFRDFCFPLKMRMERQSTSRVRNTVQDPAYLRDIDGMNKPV

Nonstructural protein 1 = Nonstructural protein 1 (Influenza A virus, UniProt Q194T2); type: functional, Influenza A virus (A/California/07/2009(H1N1))
Chain of Nonstructural protein 1 (Q194T2 whole entry): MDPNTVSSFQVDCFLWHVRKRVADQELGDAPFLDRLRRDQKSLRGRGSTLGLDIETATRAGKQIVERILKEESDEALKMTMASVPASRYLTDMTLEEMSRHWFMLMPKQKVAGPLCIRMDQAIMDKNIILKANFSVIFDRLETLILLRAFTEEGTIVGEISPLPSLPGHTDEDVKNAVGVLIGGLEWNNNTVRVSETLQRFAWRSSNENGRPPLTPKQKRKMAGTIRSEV

Beta-galactosidase = Beta-galactosidase (Escherichia coli, UniProt Q8VNN2); type: functional
Chain of Beta-galactosidase (Q8VNN2 whole entry): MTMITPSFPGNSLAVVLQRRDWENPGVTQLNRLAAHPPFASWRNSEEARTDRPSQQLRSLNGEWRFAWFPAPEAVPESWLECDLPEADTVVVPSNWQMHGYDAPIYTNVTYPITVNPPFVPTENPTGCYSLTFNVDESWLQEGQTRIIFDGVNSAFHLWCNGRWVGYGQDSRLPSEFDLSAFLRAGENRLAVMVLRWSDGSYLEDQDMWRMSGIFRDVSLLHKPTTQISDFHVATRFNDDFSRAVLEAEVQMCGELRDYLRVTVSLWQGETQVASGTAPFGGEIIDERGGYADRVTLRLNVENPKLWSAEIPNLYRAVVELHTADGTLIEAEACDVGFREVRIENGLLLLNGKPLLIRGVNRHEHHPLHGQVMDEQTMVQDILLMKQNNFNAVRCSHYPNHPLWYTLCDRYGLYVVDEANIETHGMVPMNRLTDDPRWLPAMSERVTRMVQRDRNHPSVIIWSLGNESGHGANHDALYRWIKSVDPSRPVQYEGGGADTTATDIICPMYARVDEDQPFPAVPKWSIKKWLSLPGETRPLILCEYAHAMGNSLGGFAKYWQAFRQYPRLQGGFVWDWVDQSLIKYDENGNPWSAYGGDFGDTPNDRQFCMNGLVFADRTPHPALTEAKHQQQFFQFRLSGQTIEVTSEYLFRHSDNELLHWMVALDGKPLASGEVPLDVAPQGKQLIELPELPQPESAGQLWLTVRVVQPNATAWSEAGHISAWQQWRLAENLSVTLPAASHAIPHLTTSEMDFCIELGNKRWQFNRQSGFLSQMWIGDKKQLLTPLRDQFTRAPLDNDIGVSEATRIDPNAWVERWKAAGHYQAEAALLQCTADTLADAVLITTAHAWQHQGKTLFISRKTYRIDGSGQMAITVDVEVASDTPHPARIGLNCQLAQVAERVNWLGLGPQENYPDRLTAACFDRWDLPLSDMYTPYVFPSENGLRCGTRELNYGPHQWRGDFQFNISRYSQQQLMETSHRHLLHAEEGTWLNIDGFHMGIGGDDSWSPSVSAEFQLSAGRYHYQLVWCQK

HEK293 = assay: inhibitors of LMP1-driven NF-kB reporter, dose response, cell-based, HEK293, luciferase, cherry-pick (AID 588343); type: functional; details: Homo sapiens
cells [12] = type: functional, cell-based
cells [13] = type: functional, cell-based; remark: listed apart in the source
Streptokinase A = molecular target: T6, Streptokinase A (Streptococcus pyogenes serotype M1, UniProt P10520); assay: S. pyogenes streptokinase expression inhibitors, potency, dose response, plasminogen activation absorbance, OD405 (AID 1914); type: functional, Streptococcus pyogenes M1 GAS;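 further: secreted streptokinase activity via plasminogen activation per viability signal from cell pellet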
T6 sequence (P10520 whole entry): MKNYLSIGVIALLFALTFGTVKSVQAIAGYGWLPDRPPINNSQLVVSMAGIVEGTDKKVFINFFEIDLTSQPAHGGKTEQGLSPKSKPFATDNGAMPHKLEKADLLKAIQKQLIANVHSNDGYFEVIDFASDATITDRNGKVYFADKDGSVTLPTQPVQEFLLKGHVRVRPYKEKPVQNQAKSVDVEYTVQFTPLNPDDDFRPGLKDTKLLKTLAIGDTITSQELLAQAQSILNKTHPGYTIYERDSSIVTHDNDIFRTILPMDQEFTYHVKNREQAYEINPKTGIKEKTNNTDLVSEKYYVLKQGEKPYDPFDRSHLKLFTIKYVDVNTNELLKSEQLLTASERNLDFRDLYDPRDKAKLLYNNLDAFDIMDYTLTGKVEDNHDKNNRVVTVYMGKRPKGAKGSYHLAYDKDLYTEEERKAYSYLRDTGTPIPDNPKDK

Streptococcus = assay: Group A Streptococcus viability loss, dose response, counter-screen for streptokinase expression inhibitor project, luminescence, BacTiterGlo (AID 1915); type: functional, organism-based; details: Streptococcus;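 further: potency for reduction of bacterial viability or growth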
Paired box protein Pax-8 = Paired box protein Pax-8 (Homo sapiens, UniProt Q06710); assay: inhibitors of PAX8-driven TPO luciferase reporter, dose response, RMG-I cells, cherry-pick (AID 687027); type: functional, cell-based;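 further: luciferase reporter driven by Pax8 target thyroperoxidase promoter measured by SteadyGlo luminescence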
Chain of Paired box protein Pax-8 (Q06710 whole entry): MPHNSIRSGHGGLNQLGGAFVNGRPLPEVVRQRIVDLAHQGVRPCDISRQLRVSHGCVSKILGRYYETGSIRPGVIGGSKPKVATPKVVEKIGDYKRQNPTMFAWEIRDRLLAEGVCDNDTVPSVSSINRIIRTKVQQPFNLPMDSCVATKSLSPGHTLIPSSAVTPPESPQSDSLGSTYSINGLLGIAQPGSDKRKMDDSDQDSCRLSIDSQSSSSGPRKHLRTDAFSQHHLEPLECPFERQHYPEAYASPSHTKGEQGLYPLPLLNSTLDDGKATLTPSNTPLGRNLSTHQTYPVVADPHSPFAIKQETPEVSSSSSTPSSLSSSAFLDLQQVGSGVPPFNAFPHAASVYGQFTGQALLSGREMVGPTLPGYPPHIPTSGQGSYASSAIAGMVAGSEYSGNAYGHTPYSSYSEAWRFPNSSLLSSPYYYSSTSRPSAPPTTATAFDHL

[14] = microbe, parasite or virus in culture; type: functional; details: Mycobacterium tuberculosis
[15] = cytotoxicity in HEK-293T cells, dose response, cytotoxicity control for TCR NF-kB inhibitor project, luminescence, T-cell screen hits (AID 489026); type: functional, cell-based;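 further: cells exposed to compound about 14 hours before the viability readout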
[16] = test system: Streptococcus sp. 'group A'; assay: growth inhibition of control SK(-) GAS strain, dose response, counter-screen for streptokinase expression inhibitor project, luminescence, kanamycin, BacTiterGlo, confirmation (AID 1900); type: functional, organism-based; details: Streptococcus sp. 'group A'
INS1 = assay: beta cell apoptosis inhibitors, cytokine rescue, dose response, luminescence, retest (AID 449756); type: functional, cell-based; details: Rattus norvegicus;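 further: cell death triggered by IL-1 beta plus TNF-alpha plus IFN-gamma mixture; protective hits raise ATP signal compared with cytokine alone wells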
[17] = molecular target: T5, Kappa-type opioid receptor; type: functional; remark: listed apart in the source

Structure (SMILES): COc1ccc(-c2cc(NCCc3ccncc3)n3ncnc3n2)cc1
- AC50 [1]: > 120 µM (inactive)
- AC50 [2]: 18.6 µM (active)

Structure (SMILES): CCC(=O)c1ccc(/C=C/c2nc3ccccc3n2C)o1
- IC50 (Beta Lactamase): 5.11 µM (active)
- IC50 (CHO): > 49.7 µM (inactive)

Structure (SMILES): Cc1cc(C(=O)Nc2sc3c(c2C#N)CCCC3)no1
- EC50 [3]: > 160 µM (inactive)
- EC50 [4]: 24.9 µM (active)
- EC50 [5]: > 180 µM (inactive)
- EC50 [6]: 2.21 µM (active)

Structure (SMILES): Cc1ccc2nc3sc(C(=O)NCc4ccco4)c(N)c3cc2c1
- EC50 [7]: > 99 µM (inactive)
- IC50 [8]: 4.66 µM (active)
- IC50 [9]: 7.17 µM (active)
- EC50 [10]: 65.2 µM (inactive)

Structure (SMILES): O=C(Nc1cccc(C(F)(F)F)c1)c1cccc(NC(=O)c2ccc3[nH]nnc3c2)c1
- IC50 (Hexokinase-1): > 80 µM (inactive)
- IC50 (Hexokinase HKDC1): > 80 µM (inactive)

Structure (SMILES): O=C(Nc1cccc(C(F)(F)F)c1)c1cccc(NC(=O)c2cccc3ccccc23)c1
- IC50 (Hexokinase-1): > 80 µM (inactive)
- IC50 (Hexokinase HKDC1): > 80 µM (inactive)

Structure (SMILES): C=CCNC(=S)N/N=C(\C)c1ccccn1
- EC50 [3]: 40.7 µM (inconclusive)
- IC50 [11]: 3.27 µM (active)
- EC50 [4]: > 150 µM (inactive)
- IC50 (Nonstructural protein 1): 2.5 µM (active)
- EC50 (Beta-galactosidase): > 31.5 µM (inactive)
- AC50 (HEK293): 0.493 µM (active)
- EC50 [5]: > 180 µM (inactive)
- EC50 (cells [12]): 9.83 µM (active)
- EC50 (cells [13]): > 350 µM (not active)
- EC50 (Streptokinase A): > 150 µM (not active)
- EC50 [6]: 0.146 µM (active)
- EC50 (Streptococcus): > 150 µM (not active)
- AC50 (Paired box protein Pax-8): < 0.26 µM (active)
- CC50 [14]: < 0.08 µM (active)
- IC50 [15]: > 80 µM (inactive)
- EC50 [16]: 2 µM (active)
- AC50 (INS1): < 0.195 µM (active)
- IC50 [17]: > 32 µM

Structure (SMILES): Cc1cc(C)n(-c2nc3ccccc3nc2Nc2ccc3[nH]c(O)nc3c2)n1
- EC50 [7]: > 99 µM (inactive)
- EC50 [10]: > 99 µM (inactive)
